Reference: PubChem BioAssay (NCI)
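1) Cells in 96-well plates. 2) Compound, 48 h, 5 concentrations. 3) Linear interpolation between surrounding doses. 4) Unreached endpoint = highest concentration. GI50 marks 50% less growth. TGI is the concentration that stops growth completely.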

How the values were obtained:
Experiment in all cases: NCI-60 cell line screen, 48 h
786-0 renal = tested on: 786-0 renal
A498 renal = tested on: A498 renal
A549 NSCLC = tested on: A549 NSCLC
BT-549 breast = tested on: BT-549 breast
CAKI-1 renal = tested on: CAKI-1 renal
CCRF-CEM leukemia = tested on: CCRF-CEM leukemia
COLO 205 colon = tested on: COLO 205 colon
DU-145 prostate = tested on: DU-145 prostate
EKVX NSCLC = tested on: EKVX NSCLC
HCC-2998 colon = tested on: HCC-2998 colon
HCT-116 colon = tested on: HCT-116 colon
HCT-15 colon = tested on: HCT-15 colon
HL-60(TB) leukemia = tested on: HL-60(TB) leukemia
HOP-62 NSCLC = tested on: HOP-62 NSCLC
HOP-92 NSCLC = tested on: HOP-92 NSCLC
HS 578T breast = tested on: HS 578T breast
HT29 colon = tested on: HT29 colon
IGROV1 ovarian = tested on: IGROV1 ovarian
K-562 leukemia = tested on: K-562 leukemia
KM12 colon = tested on: KM12 colon
LOX IMVI melanoma = tested on: LOX IMVI melanoma
M14 melanoma = tested on: M14 melanoma
MALME-3M melanoma = tested on: MALME-3M melanoma
MDA-MB-231 breast = tested on: MDA-MB-231 breast
MDA-MB-435 = tested on: MDA-MB-435
MOLT-4 leukemia = tested on: MOLT-4 leukemia
NCI-H23 lung = tested on: NCI-H23 lung
NCI-H460 lung = tested on: NCI-H460 lung
NCI-H522 lung = tested on: NCI-H522 lung
NCI/ADR-RES ovarian = tested on: NCI/ADR-RES ovarian
OVCAR-3 ovarian = tested on: OVCAR-3 ovarian
OVCAR-4 ovarian = tested on: OVCAR-4 ovarian
OVCAR-5 ovarian = tested on: OVCAR-5 ovarian
OVCAR-8 ovarian = tested on: OVCAR-8 ovarian
PC-3 prostate = tested on: PC-3 prostate
RPMI-8226 leukemia = tested on: RPMI-8226 leukemia
RXF 393 renal = tested on: RXF 393 renal
SF-268 CNS = tested on: SF-268 CNS
SF-295 CNS = tested on: SF-295 CNS
SF-539 CNS = tested on: SF-539 CNS
SK-MEL-2 melanoma = tested on: SK-MEL-2 melanoma
SK-MEL-28 melanoma = tested on: SK-MEL-28 melanoma
SK-MEL-5 melanoma = tested on: SK-MEL-5 melanoma
SN12C renal = tested on: SN12C renal
SNB-19 CNS = tested on: SNB-19 CNS
SNB-75 CNS = tested on: SNB-75 CNS
SR leukemia = tested on: SR leukemia
SW-620 colon = tested on: SW-620 colon
TK-10 renal = tested on: TK-10 renal
U251 CNS = tested on: U251 CNS
UACC-257 melanoma = tested on: UACC-257 melanoma
UACC-62 melanoma = tested on: UACC-62 melanoma
UO-31 renal = tested on: UO-31 renal

Compound: O=C(Nc1ccc(F)cc1F)c1cc(F)ccc1O
- GI50 (786-0 renal): 3.19 µM
- TGI (786-0 renal): 16.2 µM
- GI50 (A498 renal): 1.84 µM
- TGI (A498 renal): 5.53 µM
- GI50 (A549 NSCLC): 3.04 µM
- TGI (A549 NSCLC): > 100 µM
- GI50 (BT-549 breast): 2.43 µM
- TGI (BT-549 breast): 6.75 µM
- GI50 (CAKI-1 renal): 2.37 µM
- TGI (CAKI-1 renal): 11.6 µM
- GI50 (CCRF-CEM leukemia): 3.35 µM
- TGI (CCRF-CEM leukemia): > 100 µM
- GI50 (COLO 205 colon): 2.08 µM
- TGI (COLO 205 colon): 5.06 µM
- GI50 (DU-145 prostate): 3.62 µM
- TGI (DU-145 prostate): > 100 µM
- GI50 (EKVX NSCLC): 2.23 µM
- TGI (EKVX NSCLC): 10.5 µM
- GI50 (HCC-2998 colon): 3.12 µM
- TGI (HCC-2998 colon): 13.1 µM
- GI50 (HCT-116 colon): 2.91 µM
- TGI (HCT-116 colon): 11.1 µM
- GI50 (HCT-15 colon): 2.92 µM
- TGI (HCT-15 colon): > 100 µM
- GI50 (HL-60(TB) leukemia): 2.33 µM
- TGI (HL-60(TB) leukemia): 5.38 µM
- GI50 (HOP-62 NSCLC): 2.9 µM
- TGI (HOP-62 NSCLC): 47.2 µM
- GI50 (HOP-92 NSCLC): 0.569 µM
- TGI (HOP-92 NSCLC): 3.59 µM
- GI50 (HS 578T breast): 2.37 µM
- TGI (HS 578T breast): 9.14 µM
- GI50 (HT29 colon): 3.37 µM
- TGI (HT29 colon): > 100 µM
- GI50 (IGROV1 ovarian): 2.58 µM
- TGI (IGROV1 ovarian): > 100 µM
- GI50 (K-562 leukemia): 2.41 µM
- TGI (K-562 leukemia): > 100 µM
- GI50 (KM12 colon): 2.76 µM
- TGI (KM12 colon): 10.6 µM
- GI50 (LOX IMVI melanoma): 3.39 µM
- TGI (LOX IMVI melanoma): 12.1 µM
- GI50 (M14 melanoma): 2.82 µM
- TGI (M14 melanoma): 13.2 µM
- GI50 (MALME-3M melanoma): 2.04 µM
- TGI (MALME-3M melanoma): 7.66 µM
- GI50 (MDA-MB-231 breast): 1.9 µM
- TGI (MDA-MB-231 breast): 4.9 µM
- GI50 (MDA-MB-435): 2.86 µM
- TGI (MDA-MB-435): 34.2 µM
- GI50 (MOLT-4 leukemia): 2.63 µM
- TGI (MOLT-4 leukemia): 6.88 µM
- GI50 (NCI-H23 lung): 2.07 µM
- TGI (NCI-H23 lung): 6.62 µM
- GI50 (NCI-H460 lung): 2.94 µM
- TGI (NCI-H460 lung): > 100 µM
- GI50 (NCI-H522 lung): 2.59 µM
- TGI (NCI-H522 lung): > 100 µM
- GI50 (NCI/ADR-RES ovarian): 2.81 µM
- TGI (NCI/ADR-RES ovarian): 9.78 µM
- GI50 (OVCAR-3 ovarian): 2.77 µM
- TGI (OVCAR-3 ovarian): 21.9 µM
- GI50 (OVCAR-4 ovarian): 2.59 µM
- TGI (OVCAR-4 ovarian): > 100 µM
- GI50 (OVCAR-5 ovarian): 3.18 µM
- TGI (OVCAR-5 ovarian): > 100 µM
- GI50 (OVCAR-8 ovarian): 3.44 µM
- TGI (OVCAR-8 ovarian): > 100 µM
- GI50 (PC-3 prostate): 2.61 µM
- TGI (PC-3 prostate): 9.53 µM
- GI50 (RPMI-8226 leukemia): 1.4 µM
- TGI (RPMI-8226 leukemia): 5.01 µM
- GI50 (RXF 393 renal): 2.49 µM
- TGI (RXF 393 renal): 8.33 µM
- GI50 (SF-268 CNS): 3.34 µM
- TGI (SF-268 CNS): 67.1 µM
- GI50 (SF-295 CNS): 1.99 µM
- TGI (SF-295 CNS): 4.36 µM
- GI50 (SF-539 CNS): 2.85 µM
- TGI (SF-539 CNS): 12.3 µM
- GI50 (SK-MEL-2 melanoma): 2.48 µM
- TGI (SK-MEL-2 melanoma): 6.54 µM
- GI50 (SK-MEL-28 melanoma): 2.77 µM
- TGI (SK-MEL-28 melanoma): 13.2 µM
- GI50 (SK-MEL-5 melanoma): 1.27 µM
- TGI (SK-MEL-5 melanoma): 2.81 µM
- GI50 (SN12C renal): 2.2 µM
- TGI (SN12C renal): 8.02 µM
- GI50 (SNB-19 CNS): 3.17 µM
- TGI (SNB-19 CNS): > 100 µM
- GI50 (SNB-75 CNS): 3.19 µM
- TGI (SNB-75 CNS): 30.7 µM
- GI50 (SR leukemia): 3.95 µM
- TGI (SR leukemia): > 100 µM
- GI50 (SW-620 colon): 3.15 µM
- TGI (SW-620 colon): > 100 µM
- GI50 (TK-10 renal): 4.48 µM
- TGI (TK-10 renal): > 100 µM
- GI50 (U251 CNS): 2.95 µM
- TGI (U251 CNS): > 100 µM
- GI50 (UACC-257 melanoma): 2.26 µM
- TGI (UACC-257 melanoma): 7.32 µM
- GI50 (UACC-62 melanoma): 1.38 µM
- TGI (UACC-62 melanoma): 4.12 µM
- GI50 (UO-31 renal): 1.96 µM
- TGI (UO-31 renal): 7.16 µM
